The test system of assay [1] is MDA-MB-231 cells. Briefly: In vivo xenograft study, tumor growth. Particulars: NOD-SCID IL-2Rγ-/- mice, MDA-MB-231 xenograft, 10 or 50 mg/kg, oral gavage three times a week, Figure 5B. As to the method:
Female (NOD-SCID, IL-2Rγ^-/-) mice 5-6 weeks old were injected subcutaneously with MDA-MB-231 cells (5.10^6) at a single site on their right flanks. Tumors were allowed to grow to about 100 mm^3 before being pair-matched by tumor size into treatment groups (8 mice/group). One group was treated with vehicles (8 mice receiving cremofor 12.5%/ethanol 12.5%/ H2O), one group was treated with 10 mg/kg of the compound 1 of the invention (8 mice receiving compound 1 + cremofor 12.5%/ethanol 12.5%/ H2O), one group was treated with 50 mg/kg of the compound 1 of the invention (8 mice receiving compound 1+ cremofor 12.5%/ethanol 12.5%/ H2O). All groups received 3 times a week by oral gavages approximately 100 µL of a solution containing the compound 1 of the invention. Mice were weighed regularly to assess toxicity of the treatments and the tumors were measured with calipers (width x width x length x Pi/6) to determine tumor growth. Mice survival was assessed during the study and metastatic development was investigated in lung, spleen and liver.

For assay [2], the system named is HUVEC cells. Put plainly: Adhesion test (crystal violet). It is filed as cell-based. Particulars: in vitro, Figure 1A. The protocol:
After observation of cells under the microscope, old media were removed and the adherent cells washed gently twice with PBS (Phosphate Buffer Saline, -Ca^2+, -Mg^2+, Lonza cat n°: 17-512F/12). All cells were detached with 3 ml of trypsin/EDTA (chelator of calcium and magnesium ions) (Lonza), incubated for 5 min at 37°C, and examined using a microscope to ensure that the cells were detached and floating. Then, 3 ml TNS (Trypsin Neutralizing Solution, Lonza, France, cat n° CC-5002) or of culture medium were added to inactivate the trypsin, and the cell suspension was transferred in a falcon tube and centrifuged for 7 min at 1400 rpm. The supernatant was removed and the cell pellet resuspended in […] of culture medium. 50 µL of this solution were transferred in 20 µL of isotonic solution and the cells were counted by count cellular (Beckman Coulter). […]
After an incubation period of 72 h, the adherent cells were fixed with […] paraformaldehyde 3% for 15 min at room temperature. […] The microplate was stirred to obtain a homogenous solution and absorbance was quantified at 580 nm by Microplate Manager 5.2. The percentage of inhibition was calculated as follow: % inhibition = 100-[(DOsample/DOcontrol)*100]. […]

Assay [3] addresses T1, VEGF-R1 (Homo sapiens, UniProt P17948).
T1 construct: purchased R&D Systems, UK 321-FL-050/CF
Put plainly: ELISA, inhibition of VEGF binding to coated receptor. Particulars: VEGF-A165b / VEGF-R1; compound at 10 µM; read-out: Percent of binding inhibition (± SD). As to the method: (§1) Elisa test was performed covering a 96-well microplate (BD Biosciences, France, cat n° 353046) surface with 100 µL of 1X PBS, pH 7.4 with Ca^2+ and Mg^2+, (Lonza, France, cat n° 17-513F/12) solution containing 0.2 µg/mL of VEGF-R1 (R&D Systems, UK, cat n° 321-FL-050/CF) or 2 µg/mL of NRP-1 (R&D Systems, UK, cat n° 3870-N1-025). The plate was sealed and incubated overnight at 4°C. After 3 washes with 200 µL of 1X PBS 0.5% (v/v) Tween 20 (Sigma, France, cat n° 34078) (Buffer A), the plate was blocked by adding 200 µL of 1× PBS with 0.5% (w/v) BSA (Eurobio, France, cat n° GAUBSA01-65) and agitated at 37°C for 2 h. […] Luminescence was quantified with an EnVision™ 2101 Multilabel reader (Perkin Elmer, USA) and the data analyzed by Wallac Envision manager software. […] Non-specific binding is defined as the signal measured in the absence of receptor coated on the microplate. The specific binding was calculated as the difference between total binding and non-specific binding. The percentage of inhibition was calculated as following: Inhibition % = 100 × ((Signal measured-non specific binding signal))/((Max binding signal obtained without inhibitor-non specific binding signal without receptor)) [formula]

Assay [4] deals with T2, Neuropilin-1 (NRP-1) (Homo sapiens, UniProt O14786).
T2 construct: purchased R&D Systems, UK 3870-N1-025
T2 sequence (O14786 22-644 isoform O14786-2 limits assumed): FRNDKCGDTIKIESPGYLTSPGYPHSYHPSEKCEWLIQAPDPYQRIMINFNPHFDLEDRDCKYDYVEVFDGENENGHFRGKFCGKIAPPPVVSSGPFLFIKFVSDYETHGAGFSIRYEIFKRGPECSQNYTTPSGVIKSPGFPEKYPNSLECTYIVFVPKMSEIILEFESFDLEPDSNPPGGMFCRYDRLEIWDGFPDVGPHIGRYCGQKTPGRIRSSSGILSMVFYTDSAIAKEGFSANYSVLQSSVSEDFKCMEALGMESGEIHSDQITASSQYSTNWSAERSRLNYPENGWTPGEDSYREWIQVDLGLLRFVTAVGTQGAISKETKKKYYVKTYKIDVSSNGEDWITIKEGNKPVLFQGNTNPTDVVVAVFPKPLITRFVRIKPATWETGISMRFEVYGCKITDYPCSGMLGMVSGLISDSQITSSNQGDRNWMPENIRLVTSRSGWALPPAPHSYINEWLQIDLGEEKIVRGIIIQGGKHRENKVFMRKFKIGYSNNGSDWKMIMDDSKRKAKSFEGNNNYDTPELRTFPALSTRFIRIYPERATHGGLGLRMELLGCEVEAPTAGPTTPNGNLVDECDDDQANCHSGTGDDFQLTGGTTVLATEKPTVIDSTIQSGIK
Described as above. Particulars: VEGF-A165b / NRP-1; compound at 10 µM; read-out: Percent of binding inhibition (± SD). As to the method: as §1

T1 sequence (P17948 with tags, fused parts or gaps limits assumed): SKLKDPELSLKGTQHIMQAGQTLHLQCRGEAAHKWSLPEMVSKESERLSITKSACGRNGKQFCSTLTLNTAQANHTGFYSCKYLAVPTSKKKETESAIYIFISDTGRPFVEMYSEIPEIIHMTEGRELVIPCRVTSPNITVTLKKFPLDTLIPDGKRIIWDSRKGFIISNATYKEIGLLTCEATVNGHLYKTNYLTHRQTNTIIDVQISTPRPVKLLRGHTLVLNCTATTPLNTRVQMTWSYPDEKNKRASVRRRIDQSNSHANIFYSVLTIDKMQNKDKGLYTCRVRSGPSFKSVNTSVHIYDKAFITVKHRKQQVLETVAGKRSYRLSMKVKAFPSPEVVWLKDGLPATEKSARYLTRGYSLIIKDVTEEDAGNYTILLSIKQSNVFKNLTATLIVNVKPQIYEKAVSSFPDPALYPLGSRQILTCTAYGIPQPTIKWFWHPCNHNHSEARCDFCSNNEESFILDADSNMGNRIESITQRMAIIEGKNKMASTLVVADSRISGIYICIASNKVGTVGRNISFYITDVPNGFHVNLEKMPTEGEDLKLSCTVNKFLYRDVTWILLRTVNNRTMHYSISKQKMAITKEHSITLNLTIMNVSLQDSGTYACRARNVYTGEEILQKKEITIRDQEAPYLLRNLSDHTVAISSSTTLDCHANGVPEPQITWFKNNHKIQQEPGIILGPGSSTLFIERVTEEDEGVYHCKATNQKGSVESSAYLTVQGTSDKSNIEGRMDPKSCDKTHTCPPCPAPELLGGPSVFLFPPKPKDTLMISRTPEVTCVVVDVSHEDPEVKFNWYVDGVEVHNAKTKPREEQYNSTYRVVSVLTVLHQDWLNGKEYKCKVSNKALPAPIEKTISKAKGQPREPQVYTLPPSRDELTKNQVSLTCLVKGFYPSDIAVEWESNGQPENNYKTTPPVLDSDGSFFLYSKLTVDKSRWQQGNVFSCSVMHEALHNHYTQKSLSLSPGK

As to `CCOc1ccccc1NC(=O)c1ccc(C)c(S(=O)(=O)Nc2ccc(C)cc2)c1` [Compound 1, N-(2-ethoxyphenyl)-4-methyl-3-(N-(p-tolyl)sulfamoyl)benzamide], the “development of tumors (tumor size)” value in assay [1] is “inhibits the development of tumors”. In assay [2], the “adhesion of HUVEC cells” value is “inhibited”. Moreover, the inhibition (commonly the change of the read-out against control, counted positive when it falls) at 10 µM turned out to be 23 ± 2.2% in assay [3] and 32 ± 3.2% in assay [4].

The record behind these values is patent publication EP2823816A1, “Inhibitors of Neuropilin and use thereof for the treatment of Neuropilin-related diseases” (Tragex Pharma, priority 2013, dated 2015).
